Test results reported in patent US20210047278A1, “E3 UBIQUITIN LIGASE AGONISTS, PHARMACEUTICAL COMPOSITIONS INCLUDING THE E3 UBIQUITIN LIGASE AGONISTS, RELATED METHODS OF USE” (FRED HUTCHINSON CANCER RESEARCH CENTER, priority 2018, published 2021).
Where two headings read alike, the source gives them in different places.

Tests used:
Format in all cases: binding
FBW7^ARG+pCycE = target: T1, FBW7^ARG+pCycE (Homo sapiens, UniProt Q969H0, R505L); experiment: FBW7^ARG-cyclin E agonist ALPHAscreen (primary PRUN, confirmation CRUN1, dose-response DRUN); conditions: for EC50 / Emax: DRUN dose-response; for Emax: relative to WT-FBW7+pCycE, read-out: FBW7 ACT Averaged Max % Response
T1 construct: GST (TEV site and flexible linker) (N, cleaved yes); made in house; host or cells: SF9 insect cells (baculovirus)
T1 sequence (Q969H0 64-707 R505L): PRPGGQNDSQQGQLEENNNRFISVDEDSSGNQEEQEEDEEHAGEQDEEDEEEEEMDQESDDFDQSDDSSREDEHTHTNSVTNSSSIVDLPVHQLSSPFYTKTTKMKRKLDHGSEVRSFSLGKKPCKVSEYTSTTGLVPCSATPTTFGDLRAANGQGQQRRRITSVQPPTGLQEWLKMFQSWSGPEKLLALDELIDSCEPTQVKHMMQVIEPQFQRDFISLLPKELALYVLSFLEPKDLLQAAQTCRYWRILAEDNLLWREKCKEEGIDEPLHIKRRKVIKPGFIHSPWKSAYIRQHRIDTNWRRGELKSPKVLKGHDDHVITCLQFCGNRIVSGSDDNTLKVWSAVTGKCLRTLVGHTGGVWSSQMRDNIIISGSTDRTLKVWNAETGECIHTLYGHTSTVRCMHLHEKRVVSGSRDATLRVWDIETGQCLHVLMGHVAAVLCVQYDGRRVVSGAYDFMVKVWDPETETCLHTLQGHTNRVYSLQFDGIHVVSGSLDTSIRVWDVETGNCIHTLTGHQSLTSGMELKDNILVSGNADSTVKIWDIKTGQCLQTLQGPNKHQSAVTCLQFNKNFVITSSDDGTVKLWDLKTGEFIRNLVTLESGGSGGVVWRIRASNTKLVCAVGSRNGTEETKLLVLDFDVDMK
T1 sequence (P63208 2-163 partner): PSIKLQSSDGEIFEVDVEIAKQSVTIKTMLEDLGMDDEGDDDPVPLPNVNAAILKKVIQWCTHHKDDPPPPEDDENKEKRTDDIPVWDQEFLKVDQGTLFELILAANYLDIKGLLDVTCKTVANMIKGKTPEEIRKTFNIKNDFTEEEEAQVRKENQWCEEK
From the text: FBW7^ARG refers to a class of loss-of-function mutations of the of FBW7 ubiquitin ligase that target a key phosphate-binding arginine residue in the FBW7 substrate-binding domain. These mutations are commonly found in human cancers and promote tumorigenesis by impairing the interactions between FBW7 and its substrates, such as cyclin E and Myc. Described herein is a high throughput screen (HTS) to identify agonists, such as small molecules, that augment FBW7^ARG-substrate binding. In an embodiment, the HTS is based on the Amplified Luminescent Proximity Homogenous Assay (ALPHAscreen) because it detects protein-protein interactions with a large dynamic range. ALPHAscreen is a bead-based proximity assay wherein donor beads contain a photosensitizer, phthalocyanine, and acceptor beads contain thioxene, anthracene and rubrenein in sufficient quantities to generate a chemiluminescence/fluorescence reaction (FIG. 4A). Upon excitation with excitation illumination, such as light having a wavelength of 680 nm, of the donor beads, phthalocyanine converts ambient oxygen to singlet oxygen, which can diffuse approximately 200 nm within its 4-microsecond half-life. If an acceptor bead is in close proximity to an excited donor bead, singlet oxygen transfers its energy to the acceptor, resulting in emitted light at a broad bandwidth of −520-620 nm. The HTS-compatible FBW7/cyclin E ALPHAscreen assay described herein uses streptavidin coupled donor beads and Ni-chelate acceptor beads. In this assay, biotinylated cyclin E phosphopeptide and the His-tagged FBW7 mutant protein have high affinity for the donor and acceptor beads, respectively (FIG. 4B). A small molecule that is able to bridge the binding sites of the peptide and the mutant protein (or induce a conformational change that increases affinity of the protein for the peptide) will bring the donor and acceptor beads in close proximity to each other, resulting in an ALPHA signal. As designed, this assay format is a very sensitive, non-radioactive, homogenous “mix-and-read” format that is HT compatible in 384 and 1536 well formats.
In the 384-well screening assay, 10 uL of acceptor beads with 25 nM of the FBW7^ARG (RLFBW7) are dispensed to test wells; acceptor beads with 25 nM of the wt-FBW7 protein (WTFBW7) are dispensed to control wells. Test compounds are then added by pintool transfer and the mixture is incubated for 30 minutes. An additional 10 uL of donor beads with 25 nM cyclin E phosphopeptide is then added to all wells and the plate is incubated for 4 hours before the ALPHA signal is measured.
In preparation for large-scale screening, the assay was miniaturized to a 1536-well format. The miniaturized screen performed outstandingly in all respects. The screen was enhanced with respect to several parameters and assayed its performance using mutant FBW7 and wt-FBW7, as well as non-specific assay agonists. […] For example, the following Z′-scores/FBW7 concentrations were obtained: 6.25 nM/Z′=0.62, 12.5 nm/Z′=0.85, 25.0 nM/Z′=0.84.
1. Add 2.5 uL of RLFBW7/cycE˜P/Ni beads: Final [25 nM/25 nM/10 ug/ml].
2. Add 2.5 uL of WTFBW7/cycE˜P/Ni beads: Final [25 nM/25 nM/10 ug/ml].
4. Add 2.5 uL of SA beads to all wells Final [10 ug/ml],
5. Add 30 nL of compounds,
6. Read ALPHAscreen on Envision
The large-scale FBW7 agonist ALPHAscreen was completed using FBW7^ARG and a phosphorylated cyclin E (pCycE) degron peptide. Wt-FBW7+pCycE-peptide was the “high control”, and Wt-FBW7+unphosph. CycE peptide was the “low control”. The screen was performed on the 645,000-compound Scripps Diversity Library using 1536-well format and drug concentrations of 26.1 μM. An algorithm aided hit identification based on the average percent activation for all compounds and their standard deviation.
A confirmation assay of all 853 compounds in triplicate using a single concentration (26.1 μM). […]

FBW7^ARG (RLFBW7) alone = target: T2, FBW7^ARG (RLFBW7) alone (Homo sapiens, UniProt Q969H0, R505L); experiment: Counterscreen 1 ALPHAscreen with FBW7^ARG alone (CSRUN1/DCSRUN1); conditions: dose-response counterscreen; for Emax: read-out: RLFBW7 ACT DCSRUN1 Averaged Max % Response
T2 construct: GST (TEV site and flexible linker) (N, cleaved yes); made in house; host or cells: SF9 insect cells (baculovirus)
T2 sequence (Q969H0 64-707 R505L): as the sequence (Q969H0 64-707 R505L) above
T2 sequence (P63208 2-163 partner): as the sequence (P63208 2-163 partner) above
Method: (§1) Studies in 384-well format were performed using the ENVISION system. Reagent concentrations (see FIG. 6A), order of addition, pH (see FIG. 6B), and reducing agent were altered with the goal of enhancing the dynamic range between wt-FBW7 (the positive control) and FBW7^ARG (FIG. 6 and not shown). Wt-FBW7 produced a signal 100× greater with phosphorylated cyclin E degron peptide compared with unphosphorylated, which represents the assay's maximum range (FIG. 6C). […] This assay thus detects the residual affinity of the FBW7^ARG-substrate interaction, which, as predicted, is stronger than wt-FBW7 protein with unphosphorylated cyclin E peptide. Concurrent with this primary assay, counter ALPHAscreens were developed which omitted either FBW7 or peptide (to eliminate hits that are general ALPHAscreen agonists), or used an irrelevant phosphopeptide (to eliminate compounds that simply augment binding to phosphopeptides). […]
(§2) The 77 hits were subjected to a dose-response assay in which each compound was tested in triplicate in a 10 point 3-fold dilutional series, to a maximum concentration of approximately 87 μM. Three screens were performed, using FBW7^ARG+pCycE (DRUN), FBW7^ARG (DCSRUN1), or pCycE alone (DCSRUN2). See TABLES 2, 3, and 4, respectively, and FIG. 10A. All of the assays performed extremely well, and threshold of 10% activation (relative to WT-FBW7+pCycE) was set as positive. […] Many hits fell into shared structure cluster ID groups, reinforcing the idea that they function as specific agonists (see below and TABLE 5).

pCycE alone = experiment: Counterscreen 2 ALPHAscreen with cyclin E phosphopeptide alone (CSRUN2/DCSRUN2); conditions: for CyCEP ACT DCSRUN2 Averaged Max % Response: activation relative to WT-FBW7+pCycE, averaged maximum; for EC50: dose-response, triplicate, 10 point 3-fold dilutional series, read-out: CyCEP ACT DCSRUN2 Final EC50
Method: as §1, §2

[1] = raw curve fit, read-out: FBW7 ACT EC50 Curve Fit Raw, Molar
[2] = triplicate, 10 point 3-fold dilution, max approx. 87 μM, read-out: FBW7 ACT Final EC50, Molar
[3] = confirmation assay, triplicate, single concentration 26.1 μM, read-out: FBW7 ACT CRUN1 Avg % Response and Stdev
[4] = primary screen, 1536-well, 26.1 μM, FBW7^ARG + pCycE degron peptide, high control wt-FBW7+pCycE, read-out: FBW7 ACT PRUN % Response
[5] = raw curve fit, read-out: RLFBW7 ACT DCSRUN1 EC50 Curve Fit Raw
[6] = read-out: RLFBW7 ACT DCSRUN1 Final EC50

SMILES | EC50 (FBW7^ARG+pCycE; [1]) [µM] | Emax (FBW7^ARG+pCycE) [%] | EC50 (FBW7^ARG+pCycE; [2]) [µM] | activation at 26.1 µM (FBW7^ARG+pCycE; [3]) [%] | activation at 26.1 µM (FBW7^ARG+pCycE; [4]) [%] | EC50 (FBW7^ARG (RLFBW7) alone; [5]) [µM] | Emax (FBW7^ARG (RLFBW7) alone) [%] | EC50 (FBW7^ARG (RLFBW7) alone; [6]) [µM] | CyCEP ACT DCSRUN2 Averaged Max % Response (pCycE alone) [%] | EC50 (pCycE alone) [µM] | RLFBW7 ACT DCSRUN1 Hill Slope (FBW7^ARG (RLFBW7) alone)
CCN(CC)c1ccc2cc(-c3ccccn3)c(=O)oc2c1 [SR-01000033354-1] | 24.5 | 21.9 | > 70.9 | 3.34 ± 0.7 | 2.67 | 19.4 | 12 | > 70.9 | 0.43 | > 70.9 | 
C/C(=N\Nc1cccc(C(F)(F)F)c1)C1CC1 [SR-01000041073-1] | 15.5 | 26.6 | > 75.4 | 10.7 ± 0.12 | 3.41 | 42.4 | 101 | 39.8 | 0.22 | > 75.4 | 3.57
CC(C)(C)OC(=O)N/N=C\c1cccs1 [SR-01000110457-1] | 1.4 | 6.03 | > 65.3 | 2.27 ± 0.05 | 5.59 | 0.823 | 1.17 | > 65.3 | 0.10 | > 65.3 | 
CCOC(=O)c1sc2ncn(CC(=O)NCCC3=CCCCC3)c(=O)c2c1C [SR-01000119175-1] |  | 10.3 |  | 2.53 ± 0.13 | 2.18 |  | 0.7 |  | 0.13 | > 65.3 | 
O=C(NCCCN1CCc2ccccc2C1)Nc1ccc(Br)cc1 [SR-01000123578-1] | 0.255 | 6.18 | > 65.3 | 2.32 ± 0.39 | 3.06 | 0.255 | -0.0757 | > 65.3 | 0.28 | > 65.3 | 
CC(=O)Nc1ccc(NC(=O)Cn2cnc3c(cnn3C(C)(C)C)c2=O)cc1 [SR-01000137195-1] | 13.4 | 15.2 | > 65.3 | 4.47 ± 0.6 | 4.02 | 0.0182 | 0.23 | > 65.3 | 0.27 | > 65.3 | 
Cc1cccc(N2CCN(C(=O)CCc3nc(C4=CCN(C)CC4)no3)CC2C)c1 (stereo not shown) [SR-01000140019-1] |  | 10.2 |  | 3.38 ± 0.3 | 4.08 |  | -0.213 |  | 0.31 | > 65.3 | 
CCN(Cc1ccccc1)C(=O)c1cc2c(=O)n3cccc(C)c3nc2n1C [SR-01000140943-1] | 21.5 | 8.52 | > 65.3 | 2.95 ± 0.31 | 3.93 | 4.1 | 1.56 | > 65.3 | 0.79 | > 65.3 | 
